Literature values as cited in patent US20240130937A1, “ORAL CARE COMPOSITION” (LACER, S.A., priority 2019, published 2024).

Settings: at 25° C.

## [Cl-].[Cl-].[Zn+2] [zinc chloride]
  solubility in water: 4320 mg/mL
